# Molecular target: T1, IRAK4 (Homo sapiens, UniProt Q9NWZ3)
# T1 construct: endogenous in cells; host or cells: THP-1 cells
# T1 sequence (Q9NWZ3 1-460): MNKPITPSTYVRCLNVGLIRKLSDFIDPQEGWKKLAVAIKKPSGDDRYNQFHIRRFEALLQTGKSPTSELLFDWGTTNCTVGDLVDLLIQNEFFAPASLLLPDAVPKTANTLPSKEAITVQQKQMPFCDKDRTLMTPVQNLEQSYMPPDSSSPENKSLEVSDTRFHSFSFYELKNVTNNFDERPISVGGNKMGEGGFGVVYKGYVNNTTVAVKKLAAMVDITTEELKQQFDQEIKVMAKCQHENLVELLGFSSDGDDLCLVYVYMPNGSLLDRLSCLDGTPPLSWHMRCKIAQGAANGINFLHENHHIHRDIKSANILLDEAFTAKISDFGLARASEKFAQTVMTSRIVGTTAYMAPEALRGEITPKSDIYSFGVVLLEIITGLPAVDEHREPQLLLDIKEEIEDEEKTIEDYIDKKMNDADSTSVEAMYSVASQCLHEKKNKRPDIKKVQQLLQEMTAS
# Assay: LVL THP1 HTRF (THP1 Homogeneous Time Resolved Fluorescence)
# Assay type: cell-based
# Details: THP1 cells, 18 h incubation with compound; for DC50: read-out: LVL THP1 HTRF EC50
# Description: Cell culture media was prepared in a tissue culture hood in a sterile environment by adding 10% FBS and 1% Penicillin Streptomycin to 500 mL no phenol red RPMI 1640 media. The media was filtered through a Nalgene Bottle Top Filter and stored at 4° C.
# For Homogenous Time Resolved Fluorescence (HTRF) assays, a Cisbio HTRF kit was used, which included: Lysis Buffer #1 4×, Blocking Reagent #3 100×, 20× Antibody 1 (Anti-IRAK4 d2), 20× Antibody 2 (Anti-IRAK4 k), and Detection Buffer.
# The THP1 plates were prepared by the following method. For each dosing plate, a duplicate for CTG assay was prepared. Two THP-1 T-175 flasks could be used to plate one 384 well plate. The cells were collected from two T-175 flasks into 200 mL centrifuge tubes and spun down at 1200 rpm for 10 min. The supernatant was removed completely and cells were resuspended in 7.5 mL cell culture media. To 5 μL of the cell suspension was added 25 μL of media and 30 μL of Trypan Blue stain. The cells were counted using countess (automated cell counter, Thermo Fisher Scientific) twice and the viability and live cell count was recorded. The actual cell count was […] the live cell count. Based on the count, a cell suspension was prepared in colorless RPMI media for a final concentration of 7.5e6 cells/mL. Using Standard cassette multidrop combi, 20 μL of the 7.5e6 cells/mL cell stock was added to entire 384 well plate but for top half of column 1 (negative control) The multidrop combi was always primed to achieve a steady flow and washed after use with 20 mL de-ionized water followed by 20 mL alcohol. The cells were incubated in 5% CO2 incubator at 37° C.
# Dosing was conducted using the following method. To dose assay plates and CTG plate was added 20 nL of compounds in DMSO using Echo (Beckman Coulter), and the plates were incubated at 37° C. for 18 h. The compound plates were spun at 1200 rpm for 1 min before dosing. The compound plate was sealed and properly stored during incubation.
# After dosing, an HTRF assay was conducted using the following method. The treatment plates (IRAK4_HTRF) were centrifuged at 600 g for 10 min. Using CyBio Felix, Automated liquid handler (Analytikjena), 13 μL cell culture media was removed. To all columns, 7.5 μL lysis buffer was added, and an additional 7.5 μL of lysis buffer was added to column 1(top half, negative control). The plate was incubated on a shaker at room temperature for 2 h. The plate was spun down at 600 g for 5 min. Custom 20×IRAK4 Antibody obtained from CISBIO Anti-IRAK4-d2 (acceptor Ab) and Anti-IRAK4-K (donor Ab) were diluted to 1× antibody mix Using a multichannel repeater, 4 μL of 1× antibody mix was added to each wellThe plate was spun down at 600 g for 5 min and incubated in the dark at room temperature for 18 h The next day (after 18 hrs), HTRF assay plate was spun down at 600 g for 5 min and read at 665/615 nm using a Envision plate reader.
Structure (SMILES),LVL THP1 HTRF YMIN,DC50
"C[C@H](C#N)Nc1cc(-n2ncc3cc(C#N)c(N)nc32)ncc1-n1cc([C@H]2CC[C@H](CCN3CCN(c4ccc([C@@]5(C)CCC(=O)NC5=O)nn4)CC3)CC2)nn1 (single isomer, unassigned) [P-309]",96.8%,1000 nM
"C[C@H](C#N)Nc1cc(-n2ncc3cc(C#N)c(N)nc32)ncc1-n1cc([C@H]2CC[C@H](CCN3CCC(c4ccc([C@@]5(F)CCC(=O)NC5=O)cc4)CC3)CC2)nn1 (single isomer, unassigned) [P-318]",47.8%,374 nM
"C[C@H](C#N)Nc1cc(-n2ncc3cc(C#N)cnc32)ncc1-n1cc([C@H]2CC[C@H](CCN3CC[C@H](c4ccc([C@@]5(F)CCC(=O)NC5=O)cc4)C[C@H]3C)CC2)nn1 (single isomer, unassigned) [P-326]",0.3%,4 nM
"C[C@H](C#N)Nc1cc(-n2ncc3cc(C#N)cnc32)ncc1-n1cc([C@H]2CC[C@H](CCN3CC[C@H]4[C@@H]3CCN4c3ccc(C4CCC(=O)NC4=O)cc3)CC2)nn1 (single isomer, unassigned) [P-327]",2.2%,2.8 nM
"C[C@H](C#N)Nc1cc(-n2ncc3cc(C#N)cnc32)ncc1-n1cc(C2CCC(CCN3CC[C@H]4[C@@H]3CCN4c3ccc(N4CCC(=O)NC4=O)cc3)CC2)nn1 (single isomer, unassigned) [P-328]",2.5%,2.5 nM
"CC1CN(CC[C@H]2CC[C@H](c3cn(-c4cnc(-n5ncc6cc(C#N)cnc65)cc4N[C@H](C)C#N)nn3)CC2)CCC1c1ccc([C@@]2(F)CCC(=O)NC2=O)cc1 (single isomer, unassigned) [P-331]",−2.2%,1.8 nM
"CC1CN(CC[C@H]2CC[C@H](c3cn(-c4cnc(-n5ncc6cc(C#N)cnc65)cc4N[C@H](C)C#N)nn3)CC2)CCC1c1ccc([C@@]2(F)CCC(=O)NC2=O)cc1 (single isomer, unassigned) [P-333]",26.8%,334 nM
"C[C@H](C#N)Nc1cc(-n2ncc3cc(C#N)cnc32)ncc1-n1cc([C@H]2CC[C@H](CCN3CCC(c4ccc([C@@]5(F)CCC(=O)NC5=O)cc4)CC3)CC2)nn1 (single isomer, unassigned) [P-337]",2.7%,3.8 nM
"CC1CN(CC[C@H]2CC[C@H](c3cn(-c4cnc(-n5ncc6cc(C#N)cnc65)cc4N[C@H](C)C#N)nn3)CC2)CCC1c1ccc([C@@]2(F)CCC(=O)NC2=O)cc1 (single isomer, unassigned) [P-390]",−1.8%,2.8 nM
"C[C@H](C#N)Nc1cc(-n2ncc3cc(C#N)cnc32)ncc1-n1cc([C@H]2CC[C@H](CCN3CC[C@H]4[C@@H]3CCN4c3ccc([C@@]4(C)CCC(=O)NC4=O)nc3)CC2)nn1 (single isomer, unassigned) [P-415]",37.5%,192 nM
"C[C@H](C#N)Nc1cc(-n2ncc3cc(C#N)cnc32)ncc1-n1cc([C@H]2CC[C@H](CCN3CC[C@H]4[C@@H]3CCN4c3ccc([C@@]4(C)CCC(=O)NC4=O)nc3)CC2)nn1 (single isomer, unassigned) [P-418]",1.8%,14.9 nM
"C[C@H](C#N)Nc1cc(-n2ncc3cc(C#N)cnc32)ncc1-n1cc([C@H]2CC[C@](O)(CCN3CCN(c4ccc([C@@]5(C)CCC(=O)NC5=O)nc4)CC3)CC2)nn1 (single isomer, unassigned) [P-419]",−0.8%,31.6 nM

# Continued by falling DC50, values first:
LVL THP1 HTRF YMIN,DC50,Structure (SMILES)
71.4%,2350 nM,"C[C@H](C#N)Nc1cc(-n2ncc3cc(C#N)cnc32)ncc1-n1cc([C@H]2CC[C@H](CCN3CCC[C@@H]4[C@H]3CCCN4c3ccc([C@@]4(C)CCC(=O)NC4=O)cc3)CC2)nn1 (single isomer, unassigned) [P-414]"
87.9%,1000 nM,"C[C@H](C#N)Nc1cc(-n2ncc3cc(C#N)c(N4C[C@H]5C[C@@H]4CO5)nc32)ncc1-n1cc([C@H]2CC[C@H](CCN3CCC(c4ccc([C@@]5(F)CCC(=O)NC5=O)cc4)CC3)CC2)nn1 (single isomer, unassigned) [P-319]"
72.5%,1000 nM,"C[C@H](C#N)Nc1cc(-n2ncc3cc(C#N)cnc32)ncc1-n1cc([C@H]2CC[C@](O)(CCN3CCN(c4ccc(N5CCC(=O)NC5=O)cc4)CC3)CC2)nn1 (single isomer, unassigned) [P-373]"
61.2%,501 nM,"C[C@H](C#N)Nc1cc(-n2ncc3cc(C#N)cnc32)ncc1-n1cc([C@H]2CC[C@H](CCN3CCC(c4ccc([C@@]5(F)CCC(=O)NC5=O)cc4)CC3)CC2)nn1 (single isomer, unassigned) [P-338]"
20.7%,261 nM,"CC1CN(CC[C@H]2CC[C@H](c3cn(-c4cnc(-n5ncc6cc(C#N)cnc65)cc4N[C@H](C)C#N)nn3)CC2)CCC1c1ccc([C@@]2(F)CCC(=O)NC2=O)cc1 (single isomer, unassigned) [P-332]"
44.9%,244 nM,"C[C@H](C#N)Nc1cc(-n2ncc3cc(C#N)cnc32)ncc1-n1cc([C@H]2CC[C@H](CCN3CC[C@H]4[C@@H]3CCN4c3ccc([C@@]4(C)CCC(=O)NC4=O)cn3)CC2)nn1 (single isomer, unassigned) [P-313]"
12.0%,96.7 nM,"C[C@H](C#N)Nc1cc(-n2ncc3cc(C#N)cnc32)ncc1-n1cc([C@H]2CC[C@H](CCN3C[C@@H]4CN(c5ccc(N6CCC(=O)NC6=O)cc5)C[C@@H]4C3)CC2)nn1 (single isomer, unassigned) [P-323]"
1.8%,51.4 nM,"C[C@H](C#N)Nc1cc(-n2ncc3cc(C#N)cnc32)ncc1-n1cc([C@H]2CC[C@H](CCN3CCC(c4ccc([C@@]5(C)CCC(=O)NC5=O)cc4)C(F)(F)C3)CC2)nn1 (single isomer, unassigned) [P-417]"
7.8%,27.9 nM,"C[C@H](C#N)Nc1cc(-n2ncc3cc(C#N)cnc32)ncc1-n1cc([C@H]2CC[C@H](CCN3CCC(c4ccc(N5CCC(=O)NC5=O)cc4)C(F)C3)CC2)nn1 (single isomer, unassigned) [P-400]"
6.5%,21.8 nM,"C[C@H](C#N)Nc1cc(-n2ncc3cc(C#N)cnc32)ncc1-n1cc([C@H]2CC[C@H](CCN3CC[C@@H](c4ccc([C@@]5(C)CCC(=O)NC5=O)cc4)C(F)(F)C3)CC2)nn1 (single isomer, unassigned) [P-314]"
7.9%,13.2 nM,"C[C@H](C#N)Nc1cc(-n2ncc3cc(C#N)cnc32)ncc1-n1cc([C@H]2CC[C@H](CCN3CC[C@H]4[C@@H]3CCN4c3ccc([C@@]4(C)CCC(=O)NC4=O)cn3)CC2)nn1 (single isomer, unassigned) [P-312]"
1.6%,3.8 nM,"C[C@H](C#N)Nc1cc(-n2ncc3cc(C#N)cnc32)ncc1-n1cc([C@H]2CC[C@H](CCN3CC[C@H]4[C@@H]3CCN4c3ccc(C4CCC(=O)NC4=O)cc3)CC2)nn1 (single isomer, unassigned) [P-325]"
2.0%,1.3 nM,"C[C@H](C#N)Nc1cc(-n2ncc3cc(C#N)c(N)nc32)ncc1-n1cc([C@H]2CC[C@H](CCN3CCC(c4ccc([C@@]5(F)CCC(=O)NC5=O)cc4)CC3)CC2)nn1 (single isomer, unassigned) [P-317]"

# Source: patent US20240109881A1, “Heteroaryl Compounds as Ligand Directed Degraders of IRAK4” (Bristol-Myers Squibb Company, priority 2022, published 2024)
